Tested on: human platelets
Assay: Inhibition of Platelet Aggregation (human platelets stimulated with ADP)
Type: cell-based
Details: in vitro

| Compound | IC50 [µM] |
| --- | --- |
| O=C(O)CC1Nc2ccc(C(=O)Nc3ccc4c(c3)CNCC4)cc2CN(CCc2ccccc2)C1=O (racemic) [Example 7, (R,S)-7-[[(1,2,3,4-tetrahydro-7-isoquinolinyl]amino]carbonyl]-2,3,4,5-tetrahydro-3-oxo-4-(2-phenylethyl)-1H-1,4-benzodiazepine-2-acetic acid] | 0.2 to 11 |
| O=C(O)CC1Nc2cc(C(=O)Nc3ccc4c(c3)CNCC4)ccc2CN(CCc2ccccc2)C1=O (racemic) [Example 4, (R,S)-8-[[(1,2,3,4-tetrahydro-7-isoquinolinyl]amino]carbonyl]-2,3,4,5-tetrahydro-3-oxo-4-(2-phenylethyl)-1H-1,4-benzodiazepine-2-acetic acid] | ~75 |

The remaining lines, values ahead:

| IC50 [µM] | Compound |
| --- | --- |
| 0.2 to 11 | CN(CCC1CCNCC1)C(=O)c1ccc2c(c1)CC(CCC(=O)O)C(=O)N(CCc1ccccc1)C2 (racemic) [Example 22, (R,S)-2,3,4,5-tetrahydro-3-oxo-2-(2-phenylethyl)-7-[[[2-(4-piperidinyl)ethyl]-methylamino]carbonyl]-1H-2-benzazepine-4-propionic acid] |
| 0.2 to 11 | CN1Cc2cc(C(=O)N3CCC(C4CCNCC4)CC3)ccc2N[C@H](CC(=O)O)C1=O [Example 26, (R)-7-[(4,4'-bipiperidin-1-yl)carbonyl]-2,3,4,5-tetrahydro-4-methyl-3-oxo-1H-1,4-benzodiazepine-2-acetic acid] |
| 0.2 to 11 | O=C(O)CC1Nc2ccc(C(=O)N3CCC(C4CCNCC4)CC3)cc2CN(CCc2ccccc2)C1=O (single isomer, unassigned; (+)) [Example 23, (+)-7-[(4,4'-bipiperidin-1-yl)carbonyl]-2,3,4,5-tetrahydro-3-oxo-4-(phenylethyl)-1H-1,4-benzodiazepine-2-acetic acid] |

— patent publication US6117866A, “Bicyclic fibrinogen antagonists” (SmithKline Beecham Corporation, priority 1996, dated 2000)
